Calls of active or inactive are those of the source. The rule behind the calls is not given here.
What was measured:
HCT-116 [1] = assay: Induction of apoptosis in human HCT-116 cells assessed as necrotic cells at 0.3 uM incubated for 72 hrs by Annexin V-FITC/PI staining based flow cytometry (reference value: 0.33 %); type: functional
HCT-116 [2] = assay: Induction of apoptosis in human HCT-116 cells assessed as viable cells at 0.03 uM incubated for 72 hrs by Annexin V-FITC/PI staining based flow cytometry (reference value: 97.1 %); type: functional; details: read-out: Activity
HCT-116 [3] = assay: Induction of apoptosis in human HCT-116 cells assessed as viable cells at 3 uM incubated for 72 hrs by Annexin V-FITC/PI staining based flow cytometry (reference value: 97.1 %); type: functional; details: read-out: Activity
HCT-116 [4] = assay: Induction of cell cycle arrest in human HCT-116 cells assessed as accumulation at G0/G1 phase at 0.03 uM incubated for 72 hrs by PI staining based flow cytometry (reference value: 80.71 %); type: functional
HCT-116 [5] = assay: Antitumor activity against human HCT-116 cells xenografted in mouse assessed as reduction in cellular atypia at 50 mg/kg, ip administered once in every 2 days for 21 days by H and E staining based analysis; type: functional, organism-based; details: time 21.0 day
[6] = Selectivity index, ratio of IC50 for human L02 cells to IC50 for human A549 cells; type: toxicity; details: L02 cells versus A549 cells, read-out: Ratio IC50
A549 = assay: Anti-proliferative activity against human A549 cells incubated for 72 hrs by MTT assay; type: functional, cell-based; details: A549, 72 h
[7] = Selectivity index, ratio of IC50 for human L02 cells to IC50 for human Bel-7402 cells; type: toxicity; details: L02 cells versus Bel-7402 cells, read-out: Ratio IC50
HCT-116 [8] = assay: Induction of apoptosis in human HCT-116 cells assessed as early apoptotic cells at 3 uM incubated for 72 hrs by Annexin V-FITC/PI staining based flow cytometry (reference value: 1.55 %); type: functional
HCT-116 [9] = assay: Induction of cell cycle arrest in human HCT-116 cells at G2/M phase assessed as increase in p53 level incubated for 72 hrs by Western blot analysis; type: functional, cell-based; details: dose <= 3.0 µM
Bel-7402 = assay: Anti-proliferative activity against human Bel-7402 cells incubated for 72 hrs by MTT assay; type: functional, cell-based; details: Bel-7402, 72 h
HCT-116 [10] = assay: Induction of lipid peroxidation in human HCT-116 cells upto 3 uM incubated for 24 hrs by confocal fluorescence microscopy; type: functional, cell-based
[11] = Toxicity in BALB/c mouse assessed as apparent damage in liver at 100 mg/kg, ip administered continuously for 7 days by H and E staining based analysis; type: organism-based; details: in vivo, 168 h, time 7 day
[12] = Toxicity in mouse xenografted with human HCT-116 cells assessed as body weight change at 50 mg/kg, ip administered once in every 2 days for 21 days; type: organism-based; details: in vivo, 504 h, time 21 day
HCT-116 [13] = assay: Induction of cell cycle arrest in human HCT-116 cells assessed as accumulation at S phase at 3 uM incubated for 72 hrs by PI staining based flow cytometry (reference value: 23.49 %); type: functional
HCT-116 [14] = assay: Induction of apoptosis in human HCT-116 cells assessed as decrease in Bcl-2 level upto 3 uM incubated for 72 hrs by Western blot analysis; type: functional, cell-based
HCT-116 [15] = assay: Induction of cell cycle arrest in human HCT-116 cells assessed as accumulation at S phase at 0.3 uM incubated for 72 hrs by PI staining based flow cytometry (reference value: 23.49 %); type: functional
[16] = Toxicity in BALB/c mouse assessed as lethal dose administered intraperitoneally continuously for 7 days; details: in vivo, route ip, time 7 day
HCT-116 [17] = assay: Induction of apoptosis in human HCT-116 cells in presence of Z-VAD-FMK; type: functional, cell-based
[18] = Toxicity in BALB/c mouse assessed as apparent damage in kidney at 100 mg/kg, ip administered continuously for 7 days by H and E staining based analysis; type: organism-based; details: in vivo, 168 h, time 7 day
HCT-116 [19] = assay: Induction of cell cycle arrest in human HCT-116 cells assessed as accumulation at G2/M phase at 0.03 uM incubated for 72 hrs by PI staining based flow cytometry (reference value: 15.79 %); type: functional
HCT-116 [20] = assay: Induction of ferroptosis in human HCT-116 cells assessed as reduction in GPX4 level upto 3 uM incubated for 72 hrs by Western blot analysis; type: functional, cell-based
HCT-116 [21] = assay: Anti-proliferative activity against human HCT-116 cells incubated for 72 hrs by MTT assay; type: functional, cell-based; details: HCT-116, 72 h
[22] = Selectivity index, ratio of IC50 for human L02 cells to IC50 for human HCT-116 cells; type: toxicity; details: L02 cells versus HCT-116 cells, read-out: Ratio IC50
HCT-116 [23] = assay: Depletion of GSH in human HCT-116 cells assessed as reduction in GSH/GSSG ratio upto 3 uM incubated for 24 hrs; type: functional, cell-based
HCT-116 [24] = assay: Induction of cell cycle arrest in human HCT-116 cells assessed as accumulation at G2/M phase at 0.3 uM incubated for 72 hrs by PI staining based flow cytometry (reference value: 15.79 %); type: functional
HCT-116 [25] = assay: Induction of apoptosis in human HCT-116 cells assessed as increase in JNK level upto 3 uM incubated for 72 hrs by Western blot analysis; type: functional, cell-based
[26] = Anti-proliferative activity against human L02 cells incubated for 72 hrs by MTT assay; type: toxicity, cell-based
HCT-116 [27] = assay: Induction of apoptosis in human HCT-116 cells assessed as increase in p38 level upto 3 uM incubated for 72 hrs by Western blot analysis; type: functional, cell-based
[28] = Toxicity in BALB/c mouse assessed as loss of appetite at 100 mg/kg, ip administered continuously for 7 days; type: organism-based; details: in vivo, 168 h, time 7 day
HCT-116 [29] = assay: Induction of apoptosis in human HCT-116 cells assessed as late apoptotic cells at 0.3 uM incubated for 72 hrs by Annexin V-FITC/PI staining based flow cytometry (reference value: 0.98 %); type: functional
HCT-116 [30] = assay: Induction of intracellular ROS level in human HCT-116 cells upto 3 uM incubated for 24 hrs by DCFH-DA dye based analysis; type: functional, cell-based
HCT-116 [31] = assay: Inhibition of colony formation in human HCT-116 cells at 3 uM incubated for 7 to 12 days by crystal violet staining based analysis relative to control; type: functional; details: time 7-12 day
HCT-116 [32] = assay: Induction of apoptosis in human HCT-116 cells assessed as increase in cleaved caspase-3 level upto 3 uM incubated for 72 hrs by Western blot analysis; type: functional, cell-based
HCT-116 [33] = assay: Induction of cell cycle arrest in human HCT-116 cells assessed as accumulation at G0/G1 phase at 3 uM incubated for 72 hrs by PI staining based flow cytometry (reference value: 80.71 %); type: functional
HCT-116 [34] = assay: Induction of apoptosis in human HCT-116 cells assessed as viable cells at 0.3 uM incubated for 72 hrs by Annexin V-FITC/PI staining based flow cytometry (reference value: 97.1 %); type: functional; details: read-out: Activity
HCT-116 [35] = assay: Antitumor activity against human HCT-116 cells xenografted in mouse assessed as reduction in tumor cell mitotic figures at 50 mg/kg, ip administered once in every 2 days for 21 days by H and E staining based analysis; type: functional, organism-based; details: time 21.0 day
HCT-116 [36] = assay: Anti-proliferative activity against human HCT-116 cells assessed as inhibition of STAT3 phosphorylation upto 3 uM incubated for 72 hrs by Western blot analysis; type: functional, cell-based

C[C@@H]1CC[C@H]2[C@@H](C)C(OC(=O)Nc3ccc(Cl)cc3)O[C@@H]3O[C@@]4(C)CC[C@H]1[C@]32OO4 (stereo partly drawn)
Activity (HCT-116 [1]): 0.071%
viability at 0.03 µM (HCT-116 [2]): 93.3%
viability at 3 µM (HCT-116 [3]): 56.7%
Activity (HCT-116 [4]): 49.21%
Activity (HCT-116 [5]): Active
selectivity ratio [6]: 16.8
IC50 (A549): 1 µM
selectivity ratio [7]: 2
Activity (HCT-116 [8]): 17%
Activity (HCT-116 [9]): Dose-dependent-effect
IC50 (Bel-7402): 8.41 µM
Activity (HCT-116 [10]): Active
Activity [11]: Non-toxic
Activity [12]: Non-toxic
Activity (HCT-116 [13]): 23.71%
Activity (HCT-116 [14]): Active
Activity (HCT-116 [15]): 24.55%
LD50 at 168 h [16]: > 100 mg/kg
Activity (HCT-116 [17]): inactive
Activity [18]: Non-toxic
Activity (HCT-116 [19]): 25.25%
Activity (HCT-116 [20]): Active
IC50 (HCT-116 [21]): 0.31 µM
selectivity ratio [22]: 54.1
Activity (HCT-116 [23]): Active
Activity (HCT-116 [24]): 37.8%
Activity (HCT-116 [25]): Active
IC50 at 72 h [26]: 16.8 µM
Activity (HCT-116 [27]): Active
Activity [28]: Non-toxic
Activity (HCT-116 [29]): 8.21%
Activity (HCT-116 [30]): Active
inhibition at 3 µM (HCT-116 [31]): 62.1%
Activity (HCT-116 [32]): Active
Activity (HCT-116 [33]): 42.97%
viability at 0.3 µM (HCT-116 [34]): 81.9%
Activity (HCT-116 [35]): Active
inhibition (HCT-116 [36]): Active

From ChEMBL document CHEMBL6087402, “Design, synthesis, and in vitro and in vivo biological evaluation of dihydroartemisinin derivatives as potent anti-cancer agents with ferroptosis-inducing and apoptosis-activating properties” (Eur J Med Chem, 2025)
